Data from patent publication US20240383873A1, “PESTICIDALLY ACTIVE CYCLIC AMINE COMPOUNDS” (SYNGENTA CROP PROTECTION AG, priority 2021, published 2024).

test system: Tetranychus Urticae (Two-Spotted Spider Mite); test: Tetranychus urticae (two-spotted spider mite): feeding/contact activity; type: in vivo; settings: foliar, 192 h, application rate of 200 ppm, bean leaf discs sprayed, mixed population (mobile stages), 8 days after infestation
Experimental: Example B1: Tetranychus Urticae (Two-Spotted Spider Mite): Feeding/Contact Activity
Bean leaf discs on agar in 24-well microtiter plates were sprayed with aqueous test solutions prepared from 10'000 ppm DMSO stock solutions. After drying the leaf discs were infested with a mite population of mixed ages. The samples were assessed for mortality on mixed population (mobile stages) 8 days after infestation.

SMILES	mortality at 200 ppm
CNS(=O)(=O)C1CCN(C(=O)c2cc(C#N)c(OCc3cc(C(F)(F)F)ccc3F)nc2C(F)(F)F)CC1 [Compound P1.1, 1-[5-cyano-6-[[2-fluoro-5-(trifluoromethyl)phenyl]methoxy]-2-(trifluoromethyl)pyridine-3-carbonyl]-N-methyl-piperidine-4-sulfonamide]	≥ 80%
CN(C)C(=O)CN1CCN(C(=O)c2cc(C#N)c(OCc3cc(C(F)(F)F)ccc3F)nc2C(F)(F)F)CC1 [Compound P2.6, 2-[4-[5-Cyano-6-[[2-fluoro-5-(trifluoromethyl)phenyl]methoxy]-2-(trifluoromethyl)pyridine-3-carbonyl]piperazin-1-yl]-N,N-dimethyl-acetamide]	≥ 80%
CN(C)C(=O)CC1CCN(C(=O)c2cc(C#N)c(OCc3cc(C(F)(F)F)ccc3F)nc2C(F)(F)F)CC1 [Compound P1.37, 2-[1-[5-Cyano-6-[[2-fluoro-5-(trifluoromethyl)phenyl]methoxy]-2-(trifluoromethyl)pyridine-3-carbonyl]-4-piperidyl]-N,N-dimethyl-acetamide]	≥ 80%
CN(C)S(=O)(=O)C1CCN(C(=O)c2cc(C#N)c(OCc3ccc4c(c3)OC(F)(F)O4)nc2C(F)(F)F)CC1 [Compound P1.24, 1-[5-Cyano-6-[(2,2-difluoro-1,3-benzodioxol-5-yl)methoxy]-2-(trifluoromethyl)pyridine-3-carbonyl]-N,N-dimethyl-piperidine-4-sulfonamide]	≥ 80%
